US11261187B2, “Compounds and methods for targeting HSP90” (Duke University, priority 2016, dated 2022)

Legend:
MDA-MB-468 cells [1] = test: Confocal imaging of eHsp90 puncta in probe-treated tumor cells; format: cell-based
Method: (§1) Cells were plated on uncoated 18-mm round coverslips in 12 well plates at 150,000 cells/well and were allowed to adhere overnight. 100, in a stock solution in DMSO, was diluted in serum-free/phenol red-free DMEM. After drug incubation, the cells were washed twice with ice-cold PBS, fixed with 1% PFA in PBS for 10 min, and stained with 5 μg/mL wheat germ agglutinin-488 (WGA-488, Invitrogen, Waltham, Mass.) and either Hoescht or DAPI. The coverslips were washed and mounted onto microscope slides using FluorSave mounting reagent (Millipore, Darmstadt, Germany). Slides were imaged on a Leica SP5 confocal microscope.
(§2) Images were analyzed for fluorescence and puncta using ImageJ software using a non-biased, high-throughput macro. In brief, cells were selected using an expanded selection from the DAPI channel. The regions of interest were then masked, a watershed filter was applied to split adjacent cells into separate cells, and the regions of interest were applied to the 100 channel to measure fluorescence and puncta. High resolution confocal stacks were deconvolved with Hyugen's Deconvolution Software or AiryScan.
Using a standard fluorescence curve, the concentration within the puncta of 100 was estimated to be 4.66±0.05 μM. […]

[2] = system: MMTV-neu spontaneous mammary tumor; test: Cryo-imaging and histology of MMTV-neu spontaneous mammary tumor mice; format: in vivo, mouse
Source text: […] Slices of 5-μm thickness were cut and placed on slides to dry overnight. Slides were then deparaffinized and either H&E stained or rehydrated and stained with DAPI before mounting. Slides were imaged at 20× magnification on a Zeiss Axio Imager widefield fluorescence microscope equipped with a color camera.
To investigate the tumor specificity and eHsp90 internalization in a more relevant model of human breast cancer, the MMTV-neu spontaneous mammary tumor mouse model was used (FIGS. 4c-d). […] Following cryoslicing, each 40 μm slice was imaged for fluorescence and brightfield. […] Previous studies have reported the autofluorescence of Leydig cells in the testes due to the presence of a lipophilic pigment.

MDA-MB-468 cells [3] = test: 100 internalization assay in MDA-MB-468 cells; format: cell-based; details: MDA-MB-468 cells; dose and time series
Method: as §1, §2
(§3) To analyze the internalization of eHsp90 in transformed cells, the 4T1 cell model was utilized.

[4] = Storage stability by LC/MS at a later date; format: physicochemical; details: primarily to the hydride
Method: Compound 116 (50 mg, 33 μmol), hexamethylditin (14 mg, 9 μL, 42 μmol) and tetrakis triphenylphosphine palladium(0) (1 mg 1 μmol) were slurried in dioxane (1 mL), purged with nitrogen for 30 m and heated to 100° C. for an hour. The reaction was mixture was adsorbed onto silica gel and chromatographed (50 g C18, 0.2% formic acid to 100% MeOH) to give product 118 (13.9 mg, 27%) as a blue solid. LC/MS gives a single peak with a little shoulder with m/z=785.8 [M+2H]^2+ as part of a cluster typical of Tin compounds.

eHsp90 [5] = test: Competition of fluorescent probe binding to eHsp90 on cells by untethered Hsp90 inhibitors; format: cell-based
Method: Cells were plated on uncoated 18-mm round coverslips in 12 well plates at 150,000 cells/well and were allowed to adhere overnight. 100, in a stock solution in DMSO, was diluted in serum-free/phenol red-free DMEM. […] The coverslips were washed and mounted onto microscope slides using FluorSave mounting reagent (Millipore, Darmstadt, Germany). Slides were imaged on a Leica SP5 confocal microscope.
as §2, §3

eHsp90 [6] = test: Live imaging and tracking of puncta (lattice light sheet microscope); format: cell-based; details: 10 μM 100 competed with 100 μM HS-10
Method: Live imaging was also performed on cells treated with 100 alone, 101, or 100 and HS-10, and spots were tracked over time to investigate any differences in puncta movement and size. […] Puncta detected with 100 were competed with HS-10 (FIG. 3d).

non-malignant cells = test: Puncta formation on non-malignant cells; format: cell-based
Method: Using a standard fluorescence curve, the concentration within the puncta of 100 was estimated to be 4.66±0.05 μM. Based on puncta volume and a ratio of 1:1 for 100:Hsp90 (as each monomer of Hsp90 has a single ATP-binding site), the larger puncta are estimated to contain 2659±105 monomers of eHsp90. Accumulation of the puncta intracellularly is time-dependent (FIG. 3b). Formation of the puncta is eHsp90-dependent and not related to any physiochemical properties of the probes themselves. […] This diffusion may be a result of exchange with intracellular ATP or the degradation of the internalized eHsp90. Probe aggregates alone would not be expected to spontaneously dissipate without the addition of some form of organic solvent.

With `CCOCCCNCc1ccc(C(=C\C=C2\N(CCCCS(=O)(=O)O)c3ccccc3C2(C)C)/C=C/C2=[N+](CCCCS(=O)(=O)[O-])c3ccccc3C2(C)C)cc1` [Compound 19, 4-(2-((1E,3Z)-5-((E)-3,3-dimethyl-1-(4-sulfobutyl)indolin-2-ylidene)-3-(4-(((3-ethoxypropyl)amino)methyl)phenyl)penta-1,3-dien-1-yl)-3,3-dimethyl-3H-indol-1-ium-1-yl)butane-1-sulfonate] the “puncta formation when applied to cells” value (MDA-MB-468 cells [1]) was “does not form puncta”.

With `Cc1nn(-c2ccc(C(=O)N(C)C)c(NCCCOCCOCCOCCOCCOCCCNCc3ccc(C(=C\C=C4\N(CCCCS(=O)(=O)O)c5ccccc5C4(C)C)/C=C/C4=[N+](CCCCS(=O)(=O)[O-])c5ccccc5C4(C)C)cc3)c2)c2c1C(=O)CC(C)(C)C2` [Compound 101, 4-(2-((1E,3Z)-5-((E)-3,3-dimethyl-1-(4-sulfobutyl)indolin-2-ylidene)-3-(4-(21-((2-(dimethylcarbamoyl)-5-(3,6,6-trimethyl-4-oxo-4,5,6,7-tetrahydro-1H-indazol-1-yl)phenyl)amino)-6,9,12,15,18-pentaoxa-2-azahenicosyl)phenyl)penta-1,3-dien-1-yl)-3,3-dimethyl-3H-indol-1-ium-1-yl)butane-1-sulfonate] the “probe uptake in MMTV-neu mammary tumor” value ([2]; 25 nmol i.v., 6 hours, cryoslicing and histology) was “No uptake was observed”, the “specific drug fluorescence in duct epithelium of tumor cells (histology)” value ([2]; FIG. 5, serial sections, DAPI/Cy5) was “not in the 101-treated mouse” and the uptake of probe (MDA-MB-468 cells [3]) was “only weakly internalized at higher concentrations”.

In the case of `Cc1nn(-c2ccc(C(N)=O)c(NCCCOCCOCCOCCOCCOCCCN(Cc3ccc(C(=C\C=C4\N(CCCCS(=O)(=O)O)c5ccccc5C4(C)C)/C=C/C4=[N+](CCCCS(=O)(=O)[O-])c5ccccc5C4(C)C)cc3)Cc3ccc[c]([Sn]([CH3])([CH3])[CH3])c3)c2)c2c1C(=O)CC(C)(C)C2` [Compound 118, 4-(2-((E,3Z)-3-(4-(21-((2-carbamoyl-5-(3,6,6-trimethyl-4-oxo-4,5,6,7-tetrahydro-1H-indazol-1-yl)phenyl)amino)-2-(3-(trimethylstannyl)benzyl)-6,9,12,15,18-pentaoxa-2-azahenicosyl)phenyl)-5-((E)-3,3-dimethyl-1-(4-sulfobutyl)indolin-2-ylidene)penta-1,3-dien-1-yl)-3,3-dimethyl-3H-indol-1-ium-1-yl)butane-1-sulfonate], the stability on storage [4] is reported as “significant decomposition”.

In the case of `Cc1nn(-c2ccc(C(N)=O)c(N[C@H]3CC[C@H](O)CC3)c2)c2c1C(=O)CC(C)(C)C2` [HS-10], the “competition of binding of probe 100 to eHsp90” value (eHsp90 [5]; MDA-MB-468 cells, 100 at 25 μM, 45 min, 1 μM HS-10 or 10 μM PUH71) is reported as “competed”, the “blocking of binding of 100 and HS-27 to eHsp90” value (eHsp90 [5]; untethered Hsp90 inhibitors) is reported as “blocked” and the “competition of puncta detected with 100” value (eHsp90 [6]) is reported as “competed”.

In the case of `Cc1nn(-c2ccc(C(N)=O)c(NCCCOCCOCCOCCOCCOCCCNC(=S)Nc3ccc4c(c3)C(=O)OC43c4ccc(O)cc4Oc4cc(O)ccc43)c2)c2c1C(=O)CC(C)(C)C2` [HS-27, reference compound], the “puncta formation when applied to cells” value (MDA-MB-468 cells [1]) is reported as “forms puncta” and the “puncta formation on non-malignant cells” value (non-malignant cells) is reported as “puncta do not form”.
